# Data from patent US20110159515A1, “COMPOSITIONS AND METHODS FOR THE RAPID GROWTH AND DETECTION OF MICROORGANISMS” (SOLUS SCIENTIFIC SOLUTIONS LIMITED, priority 2008, published 2011).
# Where “and” joins values, the source holds several entries; their conditions need not be identical. Equal entries are not always repeated. Where two headings read alike, the source gives them in different places.
# What was measured:
# [1] = test system: S. aberdeen; experiment: Direct binding Salmonella assay (chemiluminescence immunosorbent); details: detergent level not given
# Experimental: (§1) After 5 hours of culture, a 2 ml aliquot of the sample was removed and SDS was added to a final concentration of 0.5% (w/v). The sample was heated to 100° C. for 5 minutes and allowed to cool. One hundred microlitres of each test sample was added directly to a well of a solid white 96 well high binding microtitre plate (Greiner Bio One) and incubated at 37° C. for 30 minutes. During incubation, the lipid A portion of the LPS binds to the surface of the plate via non-covalent hydrophobic interactions (FIG. 1a (1), FIG. 1b(1)).
# (§2) The final concentration of antibody per well was 50 ng. The plate-bound sample (Salmonella LPS/core oligosaccharide) and antibody were incubated in the coated wells for 30 minutes as 37° C. Following incubation, plates were washed three times in wash buffer and pat dried prior to detection (FIG. 1a(2), FIG. 1b(2)).
# (§3) When the anti-Salmonella is directly labelled with acridinium ester, plates were placed into a luminometer. 30 μl of trigger solution A and 60 μl of trigger solution B was added to each well of the microtitre plate to initiate light output from conjugated acridinium ester (FIG. 1a(3)). The luminometer settings were as follows:
# (§4) When the anti-Salmonella antibody is not labelled, a second binding member, a goat anti-mouse IgG2b conjugate is used. Post column IgG2b was diluted 1:100 in a diluent comprising 3% (w/v) non-fat milk powder and 0.05% (v/v) Tween 20 and 100 ul of this solution was added to each well of the plate (FIG. 1b(3)). Following incubation at 37° C. for 60 minutes the plate was washed four times in wash buffer, dried and read as above (FIG. 1b(4)).
# The wells of an assay plate are coated with standard concentrations of bacteria for 1 hour at 37° C. These standard concentrations are: 10^6, 10^5, 5×10^4, 2.5×10^4, 10^4 and 5×10^3 and blank wells containing 10^6 E. coli. The fractions to be tested are diluted 1:100 in assay buffer and […] is added to each well and incubated at 37° C. for 20 minutes. The wells are then read on the luminometer, as above.
# [2] = test system: L. innocua; experiment: as above; details: 10^6 L. innocua; detergent level not given
# Experimental: as §1, with “The” for “After 5 hours of culture, a 2 ml aliquot of the sample was removed and SDS was added to a final concentration of 0.5% (w/v). The”
# as §2, §3, §4
# Monoclonal antibody (1:100 dilution) was incubated with either Salmonella or Listeria to determine optimum incubation times:
# Monoclonal antibody (1:200 dilution) was incubated with either Salmonella or Listeria to determine optimum incubation times: […]
# [3] = test system: Salmonella; experiment: Growth response in tryptic soy broth with additive, A620 turbidity; format: cell-based, Salmonella aberdeen; details: for A620: Salmonella
# [4] = test system: E. coli; experiment: as above; format: cell-based; details: for A620: E. coli
# [5] = test system: Staphylococcus aureus
# [6] = test system: Shigella flexneri
# [7] = 10^1 bacteria (species not given)
# [8] = 10^2 bacteria (species not given)
# [9] = 10^3 bacteria (species not given)
# [10] = 10^4 bacteria (species not given)
# [11] = 10^5 bacteria (species not given)
# [12] = 10^6 bacteria (species not given)
# [13] = 2 to 16 g/L, tryptic soy broth, 37° C., 18 hours
# [14] = 5 mg/litre brilliant green, high absorbance values due to absorbance of Brilliant Green
# [15] = 7 mg/litre brilliant green, high absorbance values due to absorbance of Brilliant Green
# [16] = 10 mg/litre brilliant green, high absorbance values due to absorbance of Brilliant Green
molecule,measurement,setting,value
"CCCCCCCCCCCCCCCC[N+](C)(C)C.[Cl-] [CTAC, cetyltrimethyammoniumchloride]","signal, release and detection of core oligosaccharide",[1]; [7],10321 relative light units
same,"signal, release and detection of core oligosaccharide",[1]; [8],12485 relative light units
same,"signal, release and detection of core oligosaccharide",[1]; [9],22758 relative light units
same,"signal, release and detection of core oligosaccharide",[1]; [10],205093 relative light units
same,"signal, release and detection of core oligosaccharide",[1]; [11],792108 relative light units
same,"signal, release and detection of core oligosaccharide",[1]; [12],881712 relative light units
same,"signal, release and detection of core oligosaccharide",[2],7892 relative light units
O=S(=O)([O-])SSS(=O)(=O)[O-].[Na+].[Na+] [sodium tetrathionate],levels at which growth of Salmonella is inhibited,[3],above 16 g/L
same,effect on growth of Salmonella,[3]; [13],un-affected or promoted
same,effect on the growth of Salmonella,[3]; 8 g/litre,clear enhancing effect
same,A620,[3]; 4 g/litre tetrathionate,0.187 and 0.179
same,A620,[3]; 8 g/litre tetrathionate,0.818 and 0.848
same,A620,[3]; 12 g/litre tetrathionate,0.226 and 0.270
same,A620,[3]; 15 g/litre tetrathionate,0.167 and 0.186
same,A620,[3]; 20 g/litre tetrathionate,0.150 and 0.139
same,A620,[3]; 25 g/litre tetrathionate,0.086 and 0.099
same,A620,[3]; 30 g/litre tetrathionate,0.059 and 0.073
same,levels in a culture media that significantly inhibit the growth of Salmonella spp,[3]; summary statement,above 20 g/L
same,levels that inhibit the growth of E. coli,[4],> 4 g/L
same,effect on growth of E. coli,[4]; [13],inhibited
same,A620,[4]; 4 g/litre tetrathionate,0.096 and 0.104
same,A620,[4]; 8 g/litre tetrathionate,0.078 and 0.073
same,A620,[4]; 12 g/litre tetrathionate,0.053 and 0.048
same,A620,[4]; 15 g/litre tetrathionate,0.011
same,A620,[4]; 20 g/litre tetrathionate,0.015 and 0.018
same,A620,[4]; 25 g/litre tetrathionate,0.023 and 0.022
same,A620,[4]; 30 g/litre tetrathionate,0.021 and 0.020
same,effect on growth of Staphylococcus,[5]; [13],inhibited
same,effect on growth of Shigella,[6]; [13],inhibited
C[C@H](CCC(=O)[O-])[C@H]1CC[C@H]2[C@@H]3[C@H](O)C[C@@H]4C[C@H](O)CC[C@]4(C)[C@H]3C[C@H](O)[C@]12C.[Na+] [SODIUM CHOLATE],"signal, release and detection of core oligosaccharide",[1]; [7],8858 relative light units
same,"signal, release and detection of core oligosaccharide",[1]; [8],8921 relative light units
same,"signal, release and detection of core oligosaccharide",[1]; [9],12088 relative light units
same,"signal, release and detection of core oligosaccharide",[1]; [10],67710 relative light units
same,"signal, release and detection of core oligosaccharide",[1]; [11],529553 relative light units
same,"signal, release and detection of core oligosaccharide",[1]; [12],917476 relative light units
same,"signal, release and detection of core oligosaccharide",[2],7495 relative light units
ammonium ferric citrate,effect on growth of Salmonella,"[3]; levels above 0.25 g/l, FIG. 5",unaffected
same,levels at which growth of E. coli is limited,[4],≥ 0.25 g/L
same,levels at which growth of Staphylococcus is limited,[5],≥ 0.25 g/L
same,optimum level for growth of Shigella,[6]; FIG. 5,0.25 g/L
"O=C([O-])CC(O)(CC(=O)[O-])C(=O)[O-].[Na+].[Na+].[Na+] [sodium citrate, tri-sodium citrate]",levels at which growth of E. coli is limited,[4],≥ 5 g/L
same,levels at which growth of Staphylococcus is limited,[5],≥ 5 g/L
same,growth response of Shigella over those of Staphylococcus and E. coli,[6]; 15 g/L,significantly increased
same,effect on growth of Shigella,[6]; FIG. 6,enhanced
TRITON X-100,"signal, release and detection of core oligosaccharide",[1]; [7],9981 relative light units
same,"signal, release and detection of core oligosaccharide",[1]; [8],10494 relative light units
same,"signal, release and detection of core oligosaccharide",[1]; [9],22570 relative light units
same,"signal, release and detection of core oligosaccharide",[1]; [10],203602 relative light units
same,"signal, release and detection of core oligosaccharide",[1]; [11],867745 relative light units
same,"signal, release and detection of core oligosaccharide",[1]; [12],455886 relative light units
same,"signal, release and detection of core oligosaccharide",[2],7076 relative light units
CCN(CC)c1ccc(C(=C2C=CC(=[N+](CC)CC)C=C2)c2ccccc2)cc1 [brilliant green],levels at which growth of Salmonella is limited,[3],≥ 0.3 mg/L
same,optimum level for growth of Salmonella with inhibition of competing bacteria,[3]; FIG. 4,0.15 mg/L
same,A620,[3]; 0.15 mg/litre brilliant green,0.255 and 0.229
same,A620,[3]; 0.3 mg/litre brilliant green,0.046 and 0.041
same,A620,[3]; 1 mg/litre brilliant green,0.057 and 0.040
same,A620,[3]; 3 mg/litre brilliant green,0.072 and 0.061
same,A620,[3]; [14],0.282 and 0.256
same,A620,[3]; [15],0.606 and 0.569
same,A620,[3]; [16],0.614 and 0.607
same,levels at which growth of E. coli is limited,[4],≥ 0.0003 g/L
same,A620,[4]; 0.15 mg/litre brilliant green,0.102 and 0.118
same,A620,[4]; 0.3 mg/litre brilliant green,0.043 and 0.062
same,A620,[4]; 1 mg/litre brilliant green,0.037 and 0.035
same,A620,[4]; 3 mg/litre brilliant green,0.041 and 0.034
same,A620,[4]; [14],0.250 and 0.230
same,A620,[4]; [15],0.524 and 0.500
same,A620,[4]; [16],0.624 and 0.665
"CCCCCCCCCCCCCCCC[N+](C)(C)C.[Br-] [CTAB, cetyltrimethyammonium bromide]","signal, release and detection of core oligosaccharide",[1]; [7],8901 relative light units
same,"signal, release and detection of core oligosaccharide",[1]; [8],9746 relative light units
same,"signal, release and detection of core oligosaccharide",[1]; [9],21541 relative light units
same,"signal, release and detection of core oligosaccharide",[1]; [10],203215 relative light units
same,"signal, release and detection of core oligosaccharide",[1]; [11],775871 relative light units
same,"signal, release and detection of core oligosaccharide",[1]; [12],866920 relative light units
same,"signal, release and detection of core oligosaccharide",[2],7593 relative light units
